Source: patent publication US20040063662A1, “Selenophene anti-tumor agents” (priority 1996, published 2004)

Columns and labels:
[1] = tested on: OVCAR-3; assay: NCI human tumor cell panel: OVCAR-3 (Ovarian Cancer); assay type: cell-based
[2] = tested on: CAKI-1; assay: NCI human tumor cell panel: CAKI-1 (Renal Cancer); assay type: cell-based
[3] = tested on: MALME-3M; assay: NCI human tumor cell panel: MALME-3M (Melanoma); assay type: cell-based; details: Malme-3M
[4] = tested on: OVCAR-8; assay: NCI human tumor cell panel: OVCAR-8 (Ovarian Cancer); assay type: cell-based
[5] = tested on: RPMI-8226; assay: NCI human tumor cell panel: RPMI-8226 (Leukemia); assay type: cell-based
[6] = tested on: DU-145; assay: NCI human tumor cell panel: DU-145 (Prostate Cancer); assay type: cell-based
[7] = tested on: SF-268; assay: NCI human tumor cell panel: SF-268 (CNS Cancer); assay type: cell-based
[8] = tested on: A549/ATCC; assay: NCI human tumor cell panel: A549/ATCC (Non-Small Cell Lung Cancer); assay type: cell-based
[9] = tested on: panel of sixty different human tumor cell lines; assay: NCI human tumor cell panel: whole panel (mean graph summary)
[10] = tested on: RXF-393; assay: NCI human tumor cell panel: RXF-393 (Renal Cancer); assay type: cell-based
[11] = tested on: T-47D; assay: NCI human tumor cell panel: T-47D (Breast Cancer); assay type: cell-based; details: T47D
[12] = tested on: HL-60(TB); assay: NCI human tumor cell panel: HL-60(TB) (Leukemia); assay type: cell-based
[13] = tested on: SK-MEL-5; assay: NCI human tumor cell panel: SK-MEL-5 (Melanoma); assay type: cell-based
[14] = tested on: SW-620; assay: NCI human tumor cell panel: SW-620 (Colon Cancer); assay type: cell-based
[15] = Selective cytotoxicity microculture assay, human renal carcinoma; details: human, SCI (selectively cytotoxicity index), GI50 (RPTEC)/GI50 (A-498)
[16] = tested on: A498; assay: NCI human tumor cell panel: A498 (Renal Cancer); assay type: cell-based
[17] = tested on: MDA-MB-231/ATCC; assay: NCI human tumor cell panel: MDA-MB-231/ATCC (Breast Cancer); assay type: cell-based; details: Homo sapiens, MDA-MB-231, MDA-MB-231/ATCC
[18] = tested on: UACC-257; assay: NCI human tumor cell panel: UACC-257 (Melanoma); assay type: cell-based
[19] = tested on: HCT-116; assay: NCI human tumor cell panel: HCT-116 (Colon Cancer); assay type: cell-based
[20] = tested on: CCRF-CEM; assay: NCI human tumor cell panel: CCRF-CEM (Leukemia); assay type: cell-based
[21] = tested on: UACC-62; assay: NCI human tumor cell panel: UACC-62 (Melanoma); assay type: cell-based
[22] = tested on: K-562; assay: NCI human tumor cell panel: K-562 (Leukemia); assay type: cell-based
[23] = tested on: COLO 205; assay: NCI human tumor cell panel: COLO 205 (Colon Cancer); assay type: cell-based
[24] = tested on: MOLT-4; assay: NCI human tumor cell panel: MOLT-4 (Leukemia); assay type: cell-based
[25] = tested on: KM12; assay: NCI human tumor cell panel: KM12 (Colon Cancer); assay type: cell-based
[26] = tested on: MCF7; assay: NCI human tumor cell panel: MCF7 (Breast Cancer); assay type: cell-based
[27] = read-out: Log10 GI50 (converted)
[28] = read-out: Log10 TGI (converted)

## OCc1ccc(-c2ccc(-c3ccc[se]3)[se]2)[se]1 [compound 675246]
[1]; OVCAR-3, read-out: Log10 GI50 (converted)
  GI50: 0.0603 µM
[1]; OVCAR-3, read-out: Log10 TGI (converted)
  IC (TGI): 1.29 µM
[2]; CAKI-1, read-out: Log10 GI50 (converted)
  GI50: 5.37 µM
[2]; CAKI-1, read-out: Log10 TGI (converted)
  IC (TGI): 18.6 µM
[3]; [27]
  GI50: 6.17 µM
[3]; [28]
  IC (TGI): 19.5 µM
[4]; OVCAR-8, read-out: Log10 GI50 (converted)
  GI50: 5.01 µM
[4]; OVCAR-8, read-out: Log10 TGI (converted)
  IC (TGI): 33.1 µM
[5]; RPMI-8226, read-out: Log10 GI50 (converted)
  GI50: 7.41 µM
[5]; RPMI-8226, read-out: Log10 TGI
  IC (TGI): > 100 µM
[6]; DU-145, read-out: Log10 GI50 (converted)
  GI50: 10.2 µM
[6]; DU-145, read-out: Log10 TGI (converted)
  IC (TGI): 21.9 µM
[7]; SF-268, read-out: Log10 GI50 (converted)
  GI50: 4.07 µM
[7]; SF-268, read-out: Log10 TGI (converted)
  IC (TGI): > 100 µM
[8]; [27]
  GI50: 10.5 µM
[8]; [28]
  IC (TGI): 22.4 µM
[9]; Homo sapiens, read-out: Log10 GI50, MG_MID, mean over the panel (converted)
  GI50: 1.66 µM
[9]; Homo sapiens, read-out: Log10 LC50, MG_MID, mean over the panel (converted)
  CC50: 51.3 µM
[9]; mean over the panel
  Log10 TGI, MG_MID: −4.91
[9]; whole panel
  Log10 TGI, Delta: 2.14
  Log10 TGI, Range: 3.04
[10]; RXF-393, read-out: Log10 GI50 (converted)
  GI50: 0.0209 µM
[10]; RXF-393, read-out: Log10 TGI (converted)
  IC (TGI): 0.0912 µM
[11]; [27]
  GI50: 3.8 µM
[11]; [28]
  IC (TGI): 15.1 µM
[12]; [27]
  GI50: 5.75 µM
[12]; read-out: Log10 TGI
  IC (TGI): > 100 µM
[13]; SK-MEL-5, read-out: Log10 GI50 (converted)
  GI50: 2.63 µM
[13]; SK-MEL-5, read-out: Log10 TGI (converted)
  IC (TGI): 8.91 µM
[14]; SW-620, read-out: Log10 GI50 (converted)
  GI50: 0.417 µM
[14]; SW-620, read-out: Log10 TGI (converted)
  IC (TGI): 10.2 µM
[15]
  selectivity ratio: > 1000
[16]; A498, read-out: Log10 GI50 (converted)
  GI50: 0.0389 µM
[16]; A498, read-out: Log10 TGI (converted)
  IC (TGI): 0.166 µM
[17]; [27]
  GI50: 4.37 µM
[17]; [28]
  IC (TGI): 33.9 µM
[18]; UACC-257, read-out: Log10 GI50 (converted)
  GI50: 0.0501 µM
[18]; UACC-257, read-out: Log10 TGI (converted)
  IC (TGI): 0.224 µM
[19]; HCT-116, read-out: Log10 GI50 (converted)
  GI50: 0.0646 µM
[19]; HCT-116, read-out: Log10 TGI (converted)
  IC (TGI): 10.7 µM
[20]; [27]
  GI50: 3.16 µM
[20]; [28]
  IC (TGI): 12.3 µM
[21]; UACC-62, read-out: Log10 GI50 (converted)
  GI50: 0.0102 µM
[21]; UACC-62, read-out: Log10 TGI (converted)
  IC (TGI): 11.2 µM
[22]; K562, K-562, read-out: Log10 GI50 (converted)
  GI50: 0.372 µM
[22]; K562, K-562, read-out: Log10 TGI (converted)
  IC (TGI): 7.59 µM
[23]; COLO 205, read-out: Log10 GI50 (converted)
  GI50: 1 µM
[23]; COLO 205, read-out: Log10 TGI (converted)
  IC (TGI): 4.07 µM
[24]; MOLT-4, read-out: Log10 GI50 (converted)
  GI50: 3.24 µM
[24]; MOLT-4, read-out: Log10 TGI (converted)
  IC (TGI): 12 µM
[25]; KM12, read-out: Log10 GI50 (converted)
  GI50: 4.17 µM
[25]; KM12, read-out: Log10 TGI (converted)
  IC (TGI): 17 µM
[26]; MCF7, read-out: Log10 GI50 (converted)
  GI50: 0.145 µM
[26]; MCF7, read-out: Log10 TGI (converted)
  IC (TGI): 3.8 µM
